Assay results as given in patent US9884063B2, “Amido-substituted azole compounds” (Bayer Pharma Aktiengesellschaft, priority 2014, dated 2018).

Molecular target: T1, TNKS2 (Homo sapiens, UniProt Q9H2K2)
T1 sequence (Q9H2K2 1-1166): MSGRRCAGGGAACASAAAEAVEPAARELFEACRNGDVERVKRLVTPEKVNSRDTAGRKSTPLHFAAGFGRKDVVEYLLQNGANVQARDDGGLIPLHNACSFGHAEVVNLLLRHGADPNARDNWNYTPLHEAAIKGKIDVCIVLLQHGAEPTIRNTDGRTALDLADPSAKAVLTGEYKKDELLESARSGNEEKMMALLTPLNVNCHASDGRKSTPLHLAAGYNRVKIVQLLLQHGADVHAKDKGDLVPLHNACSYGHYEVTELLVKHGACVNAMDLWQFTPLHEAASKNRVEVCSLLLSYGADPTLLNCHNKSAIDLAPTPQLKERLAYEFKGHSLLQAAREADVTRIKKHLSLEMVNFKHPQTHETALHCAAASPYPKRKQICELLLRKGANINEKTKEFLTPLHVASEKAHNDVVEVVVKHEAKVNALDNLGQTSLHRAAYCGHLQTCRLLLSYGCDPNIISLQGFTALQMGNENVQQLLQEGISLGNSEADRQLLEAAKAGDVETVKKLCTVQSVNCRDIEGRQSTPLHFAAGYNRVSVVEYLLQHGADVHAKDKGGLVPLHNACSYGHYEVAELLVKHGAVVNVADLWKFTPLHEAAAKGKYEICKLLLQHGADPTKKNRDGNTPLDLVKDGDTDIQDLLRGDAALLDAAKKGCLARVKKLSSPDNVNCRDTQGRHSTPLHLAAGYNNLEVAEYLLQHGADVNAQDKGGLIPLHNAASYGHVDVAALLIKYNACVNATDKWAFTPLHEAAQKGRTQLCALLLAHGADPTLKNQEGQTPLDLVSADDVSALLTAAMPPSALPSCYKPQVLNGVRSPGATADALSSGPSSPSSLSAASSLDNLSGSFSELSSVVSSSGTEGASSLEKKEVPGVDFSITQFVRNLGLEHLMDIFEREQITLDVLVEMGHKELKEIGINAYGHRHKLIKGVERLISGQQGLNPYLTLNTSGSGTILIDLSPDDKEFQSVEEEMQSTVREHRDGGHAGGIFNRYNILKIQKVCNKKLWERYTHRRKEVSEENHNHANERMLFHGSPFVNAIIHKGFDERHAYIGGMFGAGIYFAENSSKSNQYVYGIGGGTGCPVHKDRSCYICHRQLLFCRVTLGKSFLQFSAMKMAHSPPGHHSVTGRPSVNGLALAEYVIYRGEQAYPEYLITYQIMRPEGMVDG
Test: Modified TNKS2 Assay 3 (BPS kit #80578, biotin-NAD+, 96 well)
Assay type: biochemical
Details: human TNKS2, BPS kit #80578, 96 well
Outline: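 Commercial kit assay measuring TNKS2-catalysed incorporation of biotin-labelled NAD+ into a protein substrate, detected by streptavidin-HRP chemiluminescence. Run per manufacturer's protocol; IC50 is the concentration halving the normalised signal.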

Row | Structure (SMILES) | IC50
1 | C[C@@H]1CCCN(CCNC(=O)c2[nH]cnc2C(=O)Nc2ccc(NC(=O)c3ccc(F)cc3Cl)cc2)C1 [Example 278, N^4-{4-[(2-chloro-4-fluorobenzoyl)amino]phenyl}-N^5-{2-[(3R)-3-methylpiperidin-1-yl]ethyl}-1H-imidazole-4,5-dicarboxamide] | 0.001 µM
2 | O=C(Nc1ccc(NC(=O)c2[nH]cnc2C(=O)N2CC3(COC3)C2)cc1)c1cc(F)c(F)cc1Cl [Example 52, N-{4-[(2-chloro-4,5-difluorobenzoyl)amino]phenyl}-4-(2-oxa-6-azaspiro[3.3]hept-6-ylcarbonyl)-1H-imidazole-5-carboxamide] | 0.25 µM
3 | O=C(Nc1ccc(NC(=O)c2[nH]cnc2C(=O)NC2CC2)cc1)c1cc(F)c(F)cc1Cl [Example 51, N^5-{4-[(2-chloro-4,5-difluorobenzoyl)amino]phenyl}-N^4-cyclopropyl-1H-imidazole-4,5-dicarboxamide] | 0.01 µM
4 | CC(CN1CCOCC1)NC(=O)c1[nH]cnc1C(=O)Nc1ccc(NC(=O)c2ccc(F)cc2Cl)cc1 (single isomer, unassigned; enantiomer 2) [Example 270, N^4-{4-[(2-chloro-4-fluorobenzoyl)amino]phenyl}-N^5-[1-(morpholin-4-yl)propan-2-yl]-1H-imidazole-4,5-dicarboxamide (enantiomer 2)] | 0.01 µM
5 | C[C@@H]1CCCCN1CCNC(=O)c1[nH]cnc1C(=O)Nc1ccc(NC(=O)c2ccc(F)cc2Cl)cc1 [Example 267, N^4-{4-[(2-chloro-4-fluorobenzoyl)amino]phenyl}-N^5-{2-[(2R)-2-methylpiperidin-1-yl]ethyl}-1H-imidazole-4,5-dicarboxamide] | < 0.0005 µM
6 | CNC(=O)c1nc[nH]c1C(=O)Nc1ccc(NC(=O)c2ccc(S(C)(=O)=O)cc2Cl)cc1 [Example 55, N^5-(4-{[2-chloro-4-(methylsulfonyl)benzoyl]amino}phenyl)-N^4-methyl-1H-imidazole-4,5-dicarboxamide] | 0.01 µM
7 | CNC(=O)c1nc[nH]c1C(=O)Nc1ccc(NC(=O)c2ccc(F)cc2I)cc1 [Example 61, N^5-{4-[(4-fluoro-2-iodobenzoyl)amino]phenyl}-N^4-methyl-1H-imidazole-4,5-dicarboxamide] | 0.003 µM
8 | CNC(=O)c1nc[nH]c1C(=O)Nc1ccc(NC(=O)c2ccc(F)cc2Br)cc1 [Example 56, N^5-{4-[(2-bromo-4-fluorobenzoyl)amino]phenyl}-N^4-methyl-1H-imidazole-4,5-dicarboxamide] | 0.06 µM
9 | O=C(Nc1ccc(NC(=O)c2[nH]cnc2C(=O)NCCN2CCCCC2)cc1)c1ccc(F)cc1Cl [Example 32, N^4-{4-[(2-chloro-4-fluorobenzoyl)amino]phenyl}-N^5-[2-(piperidin-1-yl)ethyl]-1H-imidazole-4,5-dicarboxamide] | 0.001 µM
10 | Cc1nc(C(=O)Nc2ccc(NC(=O)c3ccc(F)cc3Cl)cc2)c(C(=O)NCCN2CCCCC2)[nH]1 [Example 67, N^4-{4-[(2-chloro-4-fluorobenzoyl)amino]phenyl}-2-methyl-N^5-[2-(piperidin-1-yl)ethyl]-1H-imidazole-4,5-dicarboxamide] | 0.005 µM
11 | CN(C)CCNC(=O)c1nc[nH]c1C(=O)Nc1ccc(NC(=O)c2ccc(F)cc2Cl)cc1 [Example 22, N^4-{4-[(2-chloro-4-fluorobenzoyl)amino]phenyl}-N^5-[2-(dimethylamino)ethyl]-1H-imidazole-4,5-dicarboxamide] | 0.01 µM
